Measured values: ChEMBL document CHEMBL5352457, “Discovery of orally active 1,4,5,6,8-pentaazaacenaphthylens as novel, selective, and potent covalent BTK inhibitors for the treatment of rheumatoid arthritis” (Eur J Med Chem, 2023)
In brackets after ≈: the same amount, converted by molar mass.

Columns and labels:
in vivo [1] = settings: Sprague-Dawley, rat, po, 10 mg/kg
physchem [2] = settings: buffer, pH 7
in vivo [3] = settings: Sprague-Dawley, rat, iv, 1 mg/kg
in vivo [4] = settings: Sprague-Dawley, rat, plasma, po, 10 mg/kg
in vivo [5] = settings: Sprague-Dawley, rat, po, 10 mg/kg; remark: listed apart in the source
physchem [6] = settings: buffer, pH 7.4
in vivo [7] = settings: Sprague-Dawley, rat, po, 10 mg/kg; remark: listed apart in the source
in vivo [8] = settings: Sprague-Dawley, rat, iv, 1 mg/kg; remark: listed apart in the source
in vivo [9] = settings: Sprague-Dawley, rat, iv, 1 mg/kg; remark: listed apart in the source
in vivo [10] = settings: Sprague-Dawley, rat, po, 10 mg/kg; remark: listed apart in the source

C=CC(=O)N1CC[C@@H](N2N=C(Nc3ccc(Oc4ccccc4)cc3)c3c[nH]c4ncnc2c34)C1
Tmax at 24 h (in vivo [1]): 1 h | solubility (physchem [2]): 174 µM (≈ 81 µg/mL) | clearance at 24 h (in vivo [3]): 36.8 mL/min/kg | concentration at 1 h (in vivo [4]): 125 nM | Cmax at 24 h (in vivo [5]): 52.5 ng/mL | remaining at 24 h (physchem [6]): 80.2% | bioavailability at 24 h (in vivo [7]): 3.6% | Vd at 24 h (in vivo [8]): 1.67 L/kg | AUC at 24 h (in vivo [9]): 454 ng·h/mL | AUC at 24 h (in vivo [10]): 164 ng·h/mL
